Reference: publication PMC10996005, “Identification and Development of Cyclic Peptide Inhibitors of Hypoxia Inducible Factors 1 and 2 That Disrupt Hypoxia-Response Signaling in Cancer Cells” (Journal of the American Chemical Society, 2024)
Entries after “also recorded” stand apart in the source; their conditions may differ. Where a SMILES comes first, the peptide text is derived from it. [ ]: non-standard residue; d: D form. Phe(4-I) = N[C@@H](Cc1ccc(I)cc1)C(=O)O

Key:
HIF-2α PAS-B domain = target: T1, HIF-2α PAS-B domain (Homo sapiens, UniProt Q99814); assay: MST binding to the PAS-B domain of HIF-2α; details: MST KD ratio
T1 construct: made in house
Description: (§1) All reagents were purchased from Fisher Scientific or Sigma Aldrich UK unless specified otherwise.
(§2) Restriction enzymes and microbiology reagents were purchased from New England Biolabs Inc., Fisher Scientific (UK) or Promega (UK) and were used as directed by the manufacturer. Primers and oligonucleotides were synthesised by Integrated DNA Technologies (UK). DNA sequencing was carried out by Eurofins MWG Operon (Germany).
(§3) Construction of the RTHS and SICLOPPS library, screening, purification of recombinant HIF proteins, and the PLA was conducted as previously described in Miranda et al., J. Am. Chem. Soc., 2013, 135(28); […]
Protein labelling with MST dye
Protein was buffer exchanged from storage buffer into labelling buffer (0.1 M NaHCO3, pH 8.5) using a PD spintrap G-25 column (GE healthcare). The protein concentration was then adjusted to 20 µM.
The commercially sourced MST dye (NanoTemper) was prepared as a 470 µM solution in DMSO, which was then further diluted to 60 µM using labelling buffer. To the protein solution was added an equal volume of dye solution, and the labelling reaction was left for 1 hour in the dark at room temperature.
The labelled protein was separated from unreacted dye by elution through a PD minitrap G-25 column (GE healthcare). Labelled protein was then aliquoted and stored at -80 °C. Extent of labelling was measured by the absorbance obtained using the UV-vis mode on a NanoDrop ND-1000 Spectrophotometer (NanoDrop Technologies, USA).
Labelled protein was thawed on ice and diluted to 50 nM in assay buffer containing 50 mM Tris pH 8.0, 150 mM NaCl, 5% (v/v) glycerol, 1 mM TCEP and 0.05% TWEEN-20. The protein solution was then centrifuged at 12000 rpm for 15 minutes at 4 °C and left on ice. Compounds were prepared and serially diluted in DMSO at 10x assay concentration, before diluting to 2x assay concentration in assay buffer.
The 2x compound solutions were then mixed 1:1 (v/v) with 50 nM labelled protein solution and left to incubate for 1 hour at room temperature. Solutions were then loaded into Monolith NT.115 Premium Capillaries (NanoTemper) and placed in the sample tray. MST experiments were carried out

HIF-1α/HIF-1β PPI = target: T2, HIF-1α/HIF-1β PPI (Homo sapiens, UniProt Q16665); assay: Proximity-ligation assay (PLA) in DFX-treated HeLa cells; assay type: cell-based; details: 50 μM compound vs DMSO
T2 construct: endogenous in cells; host or cells: HeLa
Description: We used a previously reported[26] proximity-ligation assay (PLA) to assess whether cyclo-CRLII(4-iodo)F disrupts the HIF-1α/HIF-1β PPI in cells. HeLa cells were treated with the hypoxia mimic desferrioxamine (DFX) and treated with either DMSO (control) or 50 μM of cyclo-CRLII(4-iodo)F; in the control-treated samples, we observed the red puncta associated with the PLA signal from the targeted PPI (Figure 6c, upper panels).
as §1, §2, §3
The labelled protein was separated from unreacted dye by elution through a PD minitrap G-25 column (GE healthcare). […] Extent of labelling was measured by the absorbance obtained using the UV-vis mode on a NanoDrop ND-1000 Spectrophotometer (NanoDrop Technologies, USA). […]

[1] = system: CAIX and VEGF genes in Panc-1 cells; assay: qPCR of hypoxia-response genes in Panc-1 cells; assay type: cell-based; details: hypoxic Panc-1 cells, 50 μM, vs DMSO-treated hypoxic cells
Description: The effect of our lead inhibitor on hypoxia-response signaling was measured by qPCR in cancer cell lines. Cells were treated with either 2 μM of an analogue of the HIF-2-specific inhibitor belzutifan, PT2399 (control), or 50 μM of cyclo-CRLII(4-iodo)F, incubated in hypoxia for […], and the levels of the hypoxia-response genes CAIX([41],[42]) and VEGF([43]) were measured by qPCR. We observed a 51% drop in CAIX transcription and a 43% drop in VEGF transcription in hypoxic MCF-7 (breast cancer) cells treated with 50 μM of cyclo-CRLII(4-iodo)F versus hypoxic MCF-7 cells treated with DMSO only (Figure 6e). […] We also observed a 49% drop in CAIX expression in hypoxic HeLa (cervical cancer) cells treated with cyclo-CRLII(4-iodo)F (Figure S9b). […] We observed a 35% drop in HIF-2-driven VEGF transcription in 786-O cells treated with 50 μM of cyclo-CRLII(4-iodo)F compared to a 50% decrease in 786-O cells treated with PT2399. […]
Realtime PCR (qPCR) Assay
Cells were plated on 6cm dishes at 80% confluency and incubated overnight under normoxic conditions. The cells were then treated with compound and incubated for 18 hours in hypoxic conditions. After treatment, the cells were washed with PBS and lysed under hypoxic conditions. The total RNA was extracted from the cells using a commercial RNA extraction kit (Fisher Scientific) following the manufacturer's instructions. A commercial reverse transcription kit (Promega) was used to generate cDNA. The MyTaq™ Mix master mix and appropriate primers targeting CAIX and VEGF were used to perform the qPCR reaction using a qPCR machine (Bio-Rad).

T2 sequence (Q16665 whole entry): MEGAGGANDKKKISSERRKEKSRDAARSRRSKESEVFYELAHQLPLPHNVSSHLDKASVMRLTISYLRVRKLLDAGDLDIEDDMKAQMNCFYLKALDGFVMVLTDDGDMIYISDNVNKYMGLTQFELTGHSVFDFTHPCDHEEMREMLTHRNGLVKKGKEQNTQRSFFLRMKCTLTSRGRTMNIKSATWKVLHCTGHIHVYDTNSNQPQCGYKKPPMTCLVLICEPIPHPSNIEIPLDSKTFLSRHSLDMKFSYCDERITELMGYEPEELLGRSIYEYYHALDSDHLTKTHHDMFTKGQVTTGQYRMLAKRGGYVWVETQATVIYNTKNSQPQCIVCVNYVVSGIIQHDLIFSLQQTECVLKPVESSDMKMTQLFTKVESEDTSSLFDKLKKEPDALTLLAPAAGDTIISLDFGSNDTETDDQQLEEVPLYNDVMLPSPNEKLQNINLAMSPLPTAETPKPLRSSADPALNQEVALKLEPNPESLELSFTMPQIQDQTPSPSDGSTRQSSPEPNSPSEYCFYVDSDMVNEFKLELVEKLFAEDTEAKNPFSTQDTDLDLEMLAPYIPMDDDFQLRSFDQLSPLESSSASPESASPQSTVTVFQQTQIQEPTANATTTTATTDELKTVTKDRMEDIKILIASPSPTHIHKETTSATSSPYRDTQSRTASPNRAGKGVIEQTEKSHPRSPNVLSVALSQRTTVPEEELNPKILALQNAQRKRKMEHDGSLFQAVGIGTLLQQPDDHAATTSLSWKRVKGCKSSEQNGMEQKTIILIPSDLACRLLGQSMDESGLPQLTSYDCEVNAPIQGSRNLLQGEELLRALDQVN
T1 sequence (Q99814 240-350 limits assumed): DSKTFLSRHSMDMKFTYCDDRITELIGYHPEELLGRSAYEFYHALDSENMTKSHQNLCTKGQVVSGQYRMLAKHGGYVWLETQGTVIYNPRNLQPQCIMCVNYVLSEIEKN

improvement in KD for HIF-2α PAS-B compared to the parent cyclic peptide (HIF-2α PAS-B domain): 6.5 fold
SMILES: CC[C@H](C)[C@@H]1NC(=O)[C@H](CC(C)C)NC(=O)[C@H](CCCNC(=N)N)NC(=O)[C@H](CS)NC(=O)[C@H](Cc2ccc(I)cc2)NC(=O)[C@H]([C@@H](C)CC)NC1=O [cyclo-CRLII(4-iodo)F] (cyclo(CRLII[Phe(4-I)]))
PLA signal (red puncta) of the HIF-1α/HIF-1β PPI (HIF-1α/HIF-1β PPI): red puncta are absent; also recorded: the red puncta were not observed
drop in CAIX expression [1]: 41%
drop in VEGF transcription [1]: 26%
